Our source for the IC50 values is ChEMBL document CHEMBL1157666, “Design, synthesis and biological evaluation of thiazolidinone derivatives as potential EGFR and HER-2 kinase inhibitors” (Bioorg Med Chem, 2010).

One test concerns MCF7. Put plainly: cells. The following applies: Homo sapiens, MCF7, 48 h.
In test [1] the target is Epidermal growth factor receptor (Homo sapiens, UniProt P00533). Put plainly: biochemical.
Description: Inhibition of cloned EGFR autophosphorylation expressed in baculovirus-infected Sf9 cells by solid-phase ELISA
The target in test [2] is T1, Receptor tyrosine-protein kinase erbB-2 (Homo sapiens, UniProt P04626). Briefly: biochemical.
Description: (§1) Inhibition of human cloned HER2 autophosphorylation expressed in baculovirus-infected Sf9 cells by solid-phase ELISA
Test [3] deals with T1, Receptor tyrosine-protein kinase erbB-2.
Description: as §1

Where only a bound is given, the exact number is not on record here.

Epidermal growth factor receptor, sequence (P00533 whole entry): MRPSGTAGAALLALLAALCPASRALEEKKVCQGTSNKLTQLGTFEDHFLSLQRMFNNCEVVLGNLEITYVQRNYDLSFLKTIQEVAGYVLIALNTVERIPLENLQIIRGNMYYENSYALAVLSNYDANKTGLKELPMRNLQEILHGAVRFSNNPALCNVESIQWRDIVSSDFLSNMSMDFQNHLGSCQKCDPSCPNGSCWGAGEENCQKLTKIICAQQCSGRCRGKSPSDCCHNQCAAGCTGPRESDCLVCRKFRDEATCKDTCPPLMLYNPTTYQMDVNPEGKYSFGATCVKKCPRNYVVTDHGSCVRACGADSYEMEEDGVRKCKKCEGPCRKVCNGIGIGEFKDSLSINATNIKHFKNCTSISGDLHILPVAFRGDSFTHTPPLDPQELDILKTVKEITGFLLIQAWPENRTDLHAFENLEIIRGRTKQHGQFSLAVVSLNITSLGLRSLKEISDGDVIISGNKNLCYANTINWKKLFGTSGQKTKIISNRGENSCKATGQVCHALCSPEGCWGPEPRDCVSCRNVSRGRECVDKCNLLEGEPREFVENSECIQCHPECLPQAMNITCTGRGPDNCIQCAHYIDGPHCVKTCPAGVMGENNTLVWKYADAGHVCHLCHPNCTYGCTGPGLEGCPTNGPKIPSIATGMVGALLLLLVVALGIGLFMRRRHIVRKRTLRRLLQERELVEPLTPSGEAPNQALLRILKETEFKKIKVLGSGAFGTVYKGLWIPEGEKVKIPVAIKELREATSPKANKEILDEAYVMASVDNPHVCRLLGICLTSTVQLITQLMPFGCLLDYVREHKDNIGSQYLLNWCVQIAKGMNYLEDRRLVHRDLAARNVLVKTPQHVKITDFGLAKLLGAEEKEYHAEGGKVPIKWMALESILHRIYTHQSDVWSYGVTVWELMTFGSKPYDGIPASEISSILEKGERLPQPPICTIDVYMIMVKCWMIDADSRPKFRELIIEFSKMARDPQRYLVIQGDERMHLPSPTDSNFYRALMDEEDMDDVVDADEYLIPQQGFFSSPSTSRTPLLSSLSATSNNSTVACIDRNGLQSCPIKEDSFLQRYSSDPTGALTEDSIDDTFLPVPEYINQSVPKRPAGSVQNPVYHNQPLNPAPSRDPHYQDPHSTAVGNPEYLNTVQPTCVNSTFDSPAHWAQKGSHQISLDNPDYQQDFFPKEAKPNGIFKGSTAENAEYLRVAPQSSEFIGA
T1 sequence (P04626 whole entry): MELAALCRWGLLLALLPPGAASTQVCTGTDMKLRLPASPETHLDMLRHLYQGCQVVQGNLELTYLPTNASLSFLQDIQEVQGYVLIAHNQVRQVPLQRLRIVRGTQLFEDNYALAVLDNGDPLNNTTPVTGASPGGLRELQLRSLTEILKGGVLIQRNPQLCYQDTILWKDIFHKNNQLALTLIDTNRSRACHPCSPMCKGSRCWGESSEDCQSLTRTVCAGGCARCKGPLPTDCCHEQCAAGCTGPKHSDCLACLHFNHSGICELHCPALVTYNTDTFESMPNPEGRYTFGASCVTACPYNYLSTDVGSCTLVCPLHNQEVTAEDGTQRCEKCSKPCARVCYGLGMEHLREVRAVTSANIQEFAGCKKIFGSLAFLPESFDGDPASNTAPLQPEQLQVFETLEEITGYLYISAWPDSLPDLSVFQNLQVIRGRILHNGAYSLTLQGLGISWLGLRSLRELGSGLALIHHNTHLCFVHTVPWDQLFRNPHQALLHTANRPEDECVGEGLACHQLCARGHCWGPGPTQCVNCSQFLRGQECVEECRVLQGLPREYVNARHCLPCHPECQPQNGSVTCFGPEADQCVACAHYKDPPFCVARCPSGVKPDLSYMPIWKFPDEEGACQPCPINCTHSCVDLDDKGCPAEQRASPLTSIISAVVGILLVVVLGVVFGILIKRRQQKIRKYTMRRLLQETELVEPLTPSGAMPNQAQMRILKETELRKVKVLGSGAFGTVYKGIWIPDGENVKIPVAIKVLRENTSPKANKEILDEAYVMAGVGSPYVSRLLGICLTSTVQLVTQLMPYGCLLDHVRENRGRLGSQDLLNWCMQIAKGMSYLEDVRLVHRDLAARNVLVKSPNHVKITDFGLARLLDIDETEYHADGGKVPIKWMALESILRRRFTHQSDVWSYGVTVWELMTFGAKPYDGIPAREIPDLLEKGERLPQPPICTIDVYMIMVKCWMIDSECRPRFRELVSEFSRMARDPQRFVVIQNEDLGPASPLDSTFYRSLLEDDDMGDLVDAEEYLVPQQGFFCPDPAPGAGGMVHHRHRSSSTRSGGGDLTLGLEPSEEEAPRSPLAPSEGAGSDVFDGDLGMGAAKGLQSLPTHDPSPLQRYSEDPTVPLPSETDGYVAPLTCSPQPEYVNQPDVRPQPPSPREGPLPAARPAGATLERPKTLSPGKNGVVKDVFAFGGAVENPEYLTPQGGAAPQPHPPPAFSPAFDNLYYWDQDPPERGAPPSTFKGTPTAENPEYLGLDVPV

For the molecule `O=C1CSC(NN=C2CCCCCC2)=N1`, the IC50 – broadly, the midpoint of a concentration-inhibition curve – with MCF7 is 27.6 µM; in test [1], 36 µM; in test [2] it was 47 µM.
The like results for `O=C1CSC(N/N=C/c2ccc(F)cc2)=N1` were, in that order, 1.58 µM, 2.18 µM and 3.89 µM.
The like results for `O=C1CSC(N/N=C/c2ccc(Cl)cc2)=N1` were, in that order, 1.82 µM, 1.94 µM and 2.75 µM.
For `O=C1CSC(N/N=C/c2cccc(Br)c2)=N1` the same measures were 2.42 µM, 7.46 µM and 10.3 µM.
Consider `Cc1cccc(/C=N/NC2=NC(=O)CS2)c1`, for which the IC50 was 8.19 µM with MCF7, 23.5 µM in test [1] and 31.8 µM in test [2].
The like results for `O=C1CSC(N/N=C/c2cc(Br)cc(Br)c2O)=N1` were, in that order, 0.62 µM, 1.24 µM and 3.73 µM.
`O=C1CSC(N/N=C/c2ccc(O)cc2)=N1`: the IC50 in the test on MCF7 worked out at 1.67 µM; in test [1], 4.71 µM; in test [2], 6.93 µM.
For `O=C1CSC(N/N=C/c2cccc(F)c2)=N1`, the IC50 with MCF7 came out at 7.78 µM; in test [1], 13.5 µM; in test [2], 21.7 µM.
In the case of `O=C1CSC(NN=C2CCCC2)=N1`, the IC50 in the test with MCF7 is 38.5 µM; in test [1], above 50 µM; in test [2], above 50 µM.
In the case of `O=C1CSC(N/N=C/c2cccc([N+](=O)[O-])c2)=N1`, the IC50 in the test with MCF7 was 12.6 µM; in test [1], 26.6 µM; in test [2], 37.6 µM.
For `O=C1CSC(N/N=C/c2cccc(O)c2)=N1` the same measures were 11.8 µM, 19.3 µM and 27.8 µM.
With `O=C1CSC(NN=C2CCC2)=N1`, the 50% inhibitory concentration (IC50) in the test on MCF7 is 46.3 µM; in test [1] it was above 50 µM; in test [2], above 50 µM.
Consider `O=C1CSC(NN=C2CCCCC2)=N1`, for which the IC50 in the test with MCF7 was 32.1 µM; in test [1], 41 µM; in test [2], above 50 µM.
The like results for `O=C1CSC(N/N=C/c2ccc(Br)cc2)=N1` were, in that order, 0.97 µM, 1.72 µM and 2.43 µM.
For `O=C1CSC(N/N=C/c2cccc(Cl)c2)=N1` the same measures were 4.31 µM, 10.8 µM and 14.3 µM.
The like results for `COc1cccc(/C=N/NC2=NC(=O)CS2)c1` were, in that order, 9.73 µM, 31.2 µM and 45.5 µM.
Consider `O=C1CSC(NN=C2CCCCCCC2)=N1`, for which the values for the IC50 (in the test on MCF7; in test [2]) were 18.4 µM and 31 µM, respectively.
Turning to `O=C1CSC(N/N=C/c2cc(Br)ccc2O)=N1`, the IC50 in test [3] was 0.42 µM; in the test with MCF7, 0.06 µM.
For the molecule `O=C1CSC(N/N=C/c2cc(Cl)ccc2O)=N1`, the results for the IC50 (with MCF7; in test [1]; in test [2]) were 0.18 µM, 0.56 µM and 1.78 µM, respectively.
As to `O=C1CSC(N/N=C/c2cc(Cl)cc(Cl)c2O)=N1`, the IC50 stood at 1.56 µM in the test with MCF7, 1.46 µM in test [1] and 4.51 µM in test [2].
Consider `Cc1ccc(/C=N/NC2=NC(=O)CS2)cc1`, for which the figures for the IC50 (in the test with MCF7; in test [2]) were 2.05 µM and 5.83 µM, respectively.
In the case of `COc1ccc(/C=N/NC2=NC(=O)CS2)cc1`, the IC50 in the test with MCF7 came to 3.16 µM; in test [1], 5.78 µM; in test [2], 9.17 µM.
The like results for `O=C1CSC(N/N=C/c2cc(F)ccc2O)=N1` were, in that order, 0.27 µM, 0.97 µM and 3.59 µM.
The like results for `O=C1CSC(N/N=C/c2ccc([N+](=O)[O-])cc2)=N1` were, in that order, 2.77 µM, 6.82 µM and 8.46 µM.
